Consider 18 molecules from patent publication US20160257697A1, “THIOPHENE-SUBSTITUTED TETRACYCLIC COMPOUNDS AND METHODS OFUSE THEREOF FOR THE TREATMENT OF VIRAL DISEASES” (priority 2013, published 2016).

pIC50: −log10 of the molar value. Where two headings read alike, the source gives them in different places.

Common to all, as to assay: microbe, parasite or virus in culture
What all share (type): cell-based, Hepatitis C virus (HCV)

One assay concerns HCV replicon 2B. Conditions: Replicon Assay A. The procedure, abridged: (§1)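 Three-day treatment of replicon cells (2000/well, 5% FBS, 0.5% DMSO), followed by TaqMan RT-PCR of replicon RNA with cyclophilin as internal control.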
In general terms: Replicon systems follow genome replication, usually without infectious particles.

The subject of another assay is HCV replicon 1AY93H. Conditions: Replicon Assay A. The method in brief:
as §1

For the next assay, the system named is HCV replicon 1A. Conditions: HCV replicon 1A, Replicon Assay A. The procedure, abridged: as §1
The next assay deals with HCV replicon 1B. Conditions: HCV replicon 1B, Replicon Assay B.
The test system of another assay is HCV replicon 1AQ30D. Conditions: Replicon Assay B.
The mark [1] stands for this setting: Hepatitis C virus, read-out: 2B IC50, HCV replicon 2B.
The mark [2] stands for this setting: Hepatitis C virus, read-out: 1A Y93H IC50, HCV replicon 1A Y93H.
The mark [3] stands for this setting: Hepatitis C virus, read-out: 1A Q30D IC50, HCV replicon 1A Q30D.
Where [4] appears, read: read-out: 2B IC50, HCV replicon 2B.
Setting [5] is: read-out: 1A Y93H IC50, HCV replicon 1A Y93H.
Setting [6] is: read-out: 1A Q30D IC50, HCV replicon 1A Q30D.

Take `COC(=O)NC(C(=O)N1CCC[C@H]1c1ncc(-c2ccc3c(c2)c(F)c2n3C(c3ccc(C4CC4)s3)Oc3cc(-c4cnc([C@@H]5CCCN5C(=O)[C@@H](NC(=O)OC)C(C)C)[nH]4)cc(F)c3-2)[nH]1)C1CCOC(C)(C)C1` (single isomer, unassigned) [Compound 413]: the negative-log IC50 (pIC50) – broadly, the IC50 on a negative log10 scale, so that one unit is a factor of ten – is 11.15 in the assay with HCV replicon 2B (setting [1]); 10.85 in the assay on HCV replicon 1AY93H (setting [2]); 11.52 in the assay with HCV replicon 1A (Hepatitis C virus); 11.52 with HCV replicon 1B (Hepatitis C virus); 9.56 in the assay with HCV replicon 1AQ30D (setting [3]).

In the case of `COC(=O)NC(C(=O)N1[C@@H]2C[C@@H]2C[C@H]1c1ncc(-c2ccc3c(c2)cc2n3C(c3ccc(C(F)F)s3)Oc3cc(-c4cnc([C@@H]5CCCN5C(=O)[C@@H](NC(=O)OC)C(C)C)[nH]4)cc(F)c3-2)[nH]1)C1CCOC(C)(C)C1` (single isomer, unassigned) [Compound 415], the pIC50 is 10.90 with HCV replicon 2B (setting [4]); 11.38 in the assay on HCV replicon 1AY93H (setting [5]); 11.64 with HCV replicon 1A; 11.62 in the assay on HCV replicon 1B (Hepatitis C virus); 10.37 in the assay on HCV replicon 1AQ30D (setting [3]).

For the molecule `COC(=O)NC(C(=O)N1[C@@H]2C[C@@H]2C[C@H]1c1ncc(-c2ccc3c(c2)cc2n3C(c3ccc(CC4CC4)s3)Oc3cc(-c4cnc([C@@H]5CCCN5C(=O)[C@@H](NC(=O)OC)C(C)C)[nH]4)cc(F)c3-2)[nH]1)C1CCOC(C)(C)C1` (single isomer, unassigned) [Compound 416], the pIC50 with HCV replicon 2B (setting [4]) was 9.98; in the assay with HCV replicon 1AY93H (setting [5]) it was 10.06; in the assay with HCV replicon 1A, 11.64; with HCV replicon 1B, 11.51; with HCV replicon 1AQ30D (setting [6]) it was 8.91.

With `COC(=O)NC(C(=O)N1[C@@H]2C[C@@H]2C[C@H]1c1ncc(-c2ccc3c(c2)cc2n3C(c3ccc(CC4CC4)s3)Oc3cc(-c4cnc([C@@H]5CCCN5C(=O)[C@@H](NC(=O)OC)C(C)C)[nH]4)cc(F)c3-2)[nH]1)C1CCOC(C)(C)C1` (single isomer, unassigned) [Compound 417], the pIC50 in the assay on HCV replicon 2B (setting [4]) is 11.01; with HCV replicon 1AY93H (setting [5]), 9.93; in the assay with HCV replicon 1A, 11.47; with HCV replicon 1B it was 11.22; with HCV replicon 1AQ30D (setting [6]), 10.13.

`COC(=O)NC(C(=O)N1[C@@H]2C[C@@H]2C[C@H]1c1ncc(-c2ccc3c(c2)cc2n3C(c3ccc(CC4CC4)s3)Oc3cc(-c4cnc([C@@H]5CCCN5C(=O)[C@@H](NC(=O)OC)C(C)C)[nH]4)cc(F)c3-2)[nH]1)C1CCOC(C)(C)C1` (single isomer, unassigned) [Compound 418]: the negative logarithm of the IC50 (pIC50) with HCV replicon 2B (setting [4]) was 9.80; with HCV replicon 1AY93H (setting [5]), 10.03; in the assay with HCV replicon 1A, 11.57; with HCV replicon 1B it was 11.57; in the assay with HCV replicon 1AQ30D (setting [6]) it was 9.06.

On to `COC(=O)NC(C(=O)N1[C@@H]2C[C@@H]2C[C@H]1c1ncc(-c2ccc3c(c2)cc2n3C(c3ccc(CC4CC4)s3)Oc3cc(-c4cnc([C@@H]5CCCN5C(=O)[C@@H](NC(=O)OC)C(C)C)[nH]4)cc(F)c3-2)[nH]1)C1CCOC(C)(C)C1` (single isomer, unassigned) [Compound 419], for which the pIC50 in the assay on HCV replicon 2B (setting [4]) is 10.88; in the assay with HCV replicon 1AY93H (setting [5]), 11.14; in the assay with HCV replicon 1A, 11.14; with HCV replicon 1B it was 11.08; in the assay with HCV replicon 1AQ30D (setting [6]), 10.04.

Regarding `COCc1ccc(C2Oc3cc(-c4cnc([C@@H]5CCCN5C(=O)[C@@H](NC(=O)OC)C(C)C)[nH]4)cc(F)c3-c3cc4cc(-c5c[nH]c([C@@H]6CCCN6C(=O)[C@@H](NC(=O)OC)C(C)C)n5)ccc4n32)s1` (single isomer, unassigned) [Compound 513], the pIC50 was 9.39 in the assay with HCV replicon 2B (setting [4]); 10.41 in the assay with HCV replicon 1AY93H (setting [5]); 11.41 in the assay with HCV replicon 1A; 11.37 in the assay on HCV replicon 1B (Hepatitis C virus); 9.01 with HCV replicon 1AQ30D (setting [3]).

For the molecule `COC(=O)N[C@H](C(=O)N1CCC[C@H]1c1ncc(-c2cc(F)c3c(c2)OC(c2ccc(CC(C)C)s2)n2c-3cc3cc(-c4cnc([C@@H]5CCCN5C(=O)[C@@H](NC(=O)OC)C(C)C)[nH]4)ccc32)[nH]1)C(C)C` (single isomer, unassigned) [Compound 520], the pIC50 in the assay on HCV replicon 2B (setting [4]) is 9.23; with HCV replicon 1AY93H (setting [5]) it was 10.08; with HCV replicon 1A it was 11.02; with HCV replicon 1B (Hepatitis C virus), 11.03; with HCV replicon 1AQ30D (setting [3]), 8.72.

Take `COC(=O)NC(C(=O)N1CCC[C@H]1c1ncc(-c2ccc3c(c2)cc2n3C(c3ccc(C4CC4)s3)Oc3cc(-c4cnc([C@@H]5C[C@H]6C[C@H]6N5C(=O)[C@@H](NC(=O)OC)C(C)C)[nH]4)cc(F)c3-2)[nH]1)C1C[C@@H](C)O[C@@H](C)C1` (single isomer, unassigned) [Compound 538]: the pIC50 is 10.29 in the assay on HCV replicon 2B (setting [4]); 11.15 in the assay on HCV replicon 1AY93H (setting [5]); 11.33 in the assay on HCV replicon 1A; 11.49 in the assay on HCV replicon 1B (Hepatitis C virus); 9.87 in the assay with HCV replicon 1AQ30D (setting [3]).

For the molecule `COC(=O)N[C@H](C(=O)N1CCC[C@H]1c1ncc(-c2cc(F)c3c(c2)OC(c2cc4c(s2)CCC4)n2c-3cc3cc(-c4cnc([C@@H]5C[C@H]6C[C@H]6N5C(=O)[C@@H](NC(=O)OC)C5CCOCC5)[nH]4)ccc32)[nH]1)C(C)C` (single isomer, unassigned) [Compound 541], the pIC50 in the assay with HCV replicon 2B (setting [4]) is 10.02; in the assay with HCV replicon 1AY93H (setting [5]) it was 8.66; with HCV replicon 1A, 10.83; in the assay on HCV replicon 1B, 10.63; with HCV replicon 1AQ30D (setting [3]), 9.52.

As to `COC(=O)N[C@H](C(=O)N1CCC[C@H]1c1ncc(-c2cc(F)c3c(c2)OC(c2cc4c(s2)CCC4)n2c-3cc3cc(-c4cnc([C@@H]5C[C@H]6C[C@H]6N5C(=O)[C@@H](NC(=O)OC)C5CCOCC5)[nH]4)ccc32)[nH]1)C(C)C` (single isomer, unassigned) [Compound 542], the pIC50 in the assay on HCV replicon 2B (setting [4]) was 10.47; in the assay on HCV replicon 1AY93H (setting [5]), 11.07; in the assay on HCV replicon 1A, 11.47; in the assay on HCV replicon 1B it was 11.43; with HCV replicon 1AQ30D (setting [6]), 9.79.

On to `CCc1ccc(C2Oc3cc(-c4cnc([C@@H]5CCCN5C(=O)[C@@H](NC(=O)OC)C(C)C)[nH]4)cc(C)c3-c3cc4cc(-c5cnc([C@@H]6CCCN6C(=O)C(NC(=O)OC)C6C[C@@H](C)O[C@@H](C)C6)[nH]5)ccc4n32)s1` (single isomer, unassigned) [Compound 543], for which the pIC50 with HCV replicon 2B (setting [4]) is 10.96; in the assay on HCV replicon 1AY93H (setting [5]) it was 10.40; with HCV replicon 1A (Hepatitis C virus), 11.26; in the assay on HCV replicon 1B (Hepatitis C virus), 11.07; with HCV replicon 1AQ30D (setting [3]), 9.51.

Consider `CCc1ccc(C2Oc3cc(-c4cnc([C@@H]5CCCN5C(=O)[C@@H](NC(=O)OC)C(C)C)[nH]4)cc(C)c3-c3cc4cc(-c5cnc([C@@H]6CCCN6C(=O)C(NC(=O)OC)C6C[C@@H](C)O[C@H](C)C6)[nH]5)ccc4n32)s1` (single isomer, unassigned) [Compound 545], for which the pIC50 in the assay with HCV replicon 2B (setting [4]) is 11.19; with HCV replicon 1AY93H (setting [5]), 10.62; in the assay with HCV replicon 1A it was 11.45; in the assay with HCV replicon 1B (Hepatitis C virus) it was 11.22; with HCV replicon 1AQ30D (setting [3]), 9.96.

Turning to `CCc1ccc(C2Oc3cc(-c4cnc([C@@H]5CCCN5C(=O)[C@@H](NC(=O)OC)C(C)C)[nH]4)cc(C)c3-c3cc4cc(-c5cnc([C@@H]6CCCN6C(=O)[C@@H](NC(=O)OC)C6CCOC(C)(C)C6)[nH]5)ccc4n32)s1` (single isomer, unassigned) [Compound 547], the pIC50 in the assay with HCV replicon 2B (setting [1]) was 10.92; in the assay with HCV replicon 1AY93H (setting [2]), 9.89; in the assay with HCV replicon 1A (Hepatitis C virus), 11.15; in the assay with HCV replicon 1B (Hepatitis C virus), 11.15; with HCV replicon 1AQ30D (setting [3]), 9.02.

In the case of `COC(=O)N[C@H](C(=O)N1CCC[C@H]1c1ncc(-c2cc(C)c3c(c2)OC(c2cc4c(s2)CCC4)n2c-3cc3cc(-c4cnc([C@@H]5CCCN5C(=O)[C@@H](NC(=O)OC)C5C[C@@H](C)O[C@@H](C)C5)[nH]4)ccc32)[nH]1)C(C)C` (single isomer, unassigned) [Compound 548], the pIC50 in the assay with HCV replicon 2B (setting [4]) is 10.64; in the assay on HCV replicon 1AY93H (setting [5]), 10.18; in the assay with HCV replicon 1A it was 11.12; in the assay on HCV replicon 1B (Hepatitis C virus) it was 11.01; with HCV replicon 1AQ30D (setting [3]), 8.86.

For the molecule `COC(=O)N[C@H](C(=O)N1CCC[C@H]1c1ncc(-c2cc(F)c3c(c2)OC(c2cc4c(s2)CCC4)n2c-3cc3cc(-c4cnc([C@@H]5C[C@H]6C[C@H]6N5C(=O)[C@@H](NC(=O)OC)C5C[C@@H](C)O[C@@H](C)C5)[nH]4)ccc32)[nH]1)C(C)C` (single isomer, unassigned) [Compound 551], the pIC50 is 10.07 in the assay with HCV replicon 2B (setting [4]); 10.78 in the assay on HCV replicon 1AY93H (setting [5]); 11.20 with HCV replicon 1A; 11.10 in the assay with HCV replicon 1B; 9.77 in the assay with HCV replicon 1AQ30D (setting [6]).

For `COC(=O)N[C@H](C(=O)N1CCC[C@H]1c1ncc(-c2cc(F)c3c(c2)OC(c2cc4c(s2)CCC4)n2c-3cc3cc(-c4cnc([C@@H]5C[C@H]6C[C@H]6N5C(=O)[C@@H](NC(=O)OC)C5C[C@@H](C)O[C@@H](C)C5)[nH]4)ccc32)[nH]1)C(C)C` (single isomer, unassigned) [Compound 553], the pIC50 was 9.66 in the assay with HCV replicon 2B (setting [4]); 10.40 with HCV replicon 1AY93H (setting [5]); 10.36 with HCV replicon 1A; 10.32 with HCV replicon 1B; 9.15 with HCV replicon 1AQ30D (setting [6]).

As for `COC(=O)N[C@H](C(=O)N1C2CC2C[C@H]1c1ncc(-c2cc(F)c3c(c2)OC(c2ccc(C4CC4)s2)n2c-3cc3cc(-c4cnc([C@@H]5CCCN5C(=O)[C@@H](NC(=O)OC)C5C[C@@H](C)O[C@@H](C)C5)[nH]4)ccc32)[nH]1)C(C)C` (single isomer, unassigned) [Compound 554], the pIC50 is 9.69 in the assay with HCV replicon 2B (setting [4]); 9.63 with HCV replicon 1AY93H (setting [5]); 10.57 in the assay with HCV replicon 1A; 10.65 in the assay on HCV replicon 1B; 8.78 in the assay on HCV replicon 1AQ30D (setting [6]).
